# US20260256792A1, “TREATMENT OF CHRONIC SPONTANEOUS URTICARIA BY ADMINISTERING (R)-2-[3-[4-AMINO-3-(2-FLUORO-4-PHENOXY-PHENYL)PYRAZOLO[3,4-D]PYRIMIDIN-1-YL]PIPERIDINE-1-CARBONYL]-4-METHYL-4-[4-(OXETAN-3-YL)PIPERAZIN-1-YL]PENT-2-ENENITRILE” (priority 2023, published 2026)
# System: moderate-to-severe chronic spontaneous urticaria (CSU)
# Assay: Phase 2 CSU study: hives severity score over 7 days (HSS7)
# Assay type: in vivo, human
# Parameters: key to HSS7 Change from baseline, Median / HSS7, Median / HSS7, Max / HSS7 Change from baseline, Q1 / HSS7 Change from baseline, Q3 / HSS7 Change from baseline, Max: 7-day sum of daily hive scores, each 0 = none to 3 = >50 hives
# Settings: 400 mg BID
# Excerpt: The study comprises a 12 week, randomized, double-blind, placebo-controlled, multi-center, dose-ranging efficacy and safety phase, followed by a 40 week open label extension (OLE) phase (see FIG. 1).
# The study consists of three phases and an optional OLE phase.
# The UAS is a validated PRO measure. The daily UAS is the sum of the daily Hive Severity Score (HSS, ranging from 0=None to 3=more than 50 hives) and the daily Itch Severity Score (ISS, ranging from 0=None to 3=intense), the 2 key urticaria signs and symptoms which are wheals and itch. The daily UAS scores range from 0 to 6 point/day. Daily UAS scores are summed over 7-day period to create the UAS7, ranging from 0 to 42, and are composed of the HSS7 and ISS7 components. […] Patients were to complete the UAS using the e-diary. The e-diary was to be used once daily on the same time of each day recording of participant's answers to the urticaria activity score over 7 days (UAS7) questionnaire. For participants who entered the OLE phase, their answers to the UAS7 questionnaire were also to be collected from Week 20 to Week24 and from Week 48 to Week 52.
# The following secondary endpoints were to be analyzed using the same approach as for the primary endpoint: • Change from baseline in UAS7 at Week 4 • Change from baseline in UAS7 at Week 12 (for US and US reference countries) • Change from baseline in ISS7 at Week 12 (except US and US reference countries) • Change from baseline in HSS7 at Week 12
# [1] = Omalizumab-Naïve Population, last block under Week 12, double-blind period, WOCF imputation
# [2] = Week 1, Omalizumab-Naïve Population
# [3] = Week 2, Omalizumab-Naïve Population
# [4] = Week 3, Omalizumab-Naïve Population
# [5] = Week 4, Omalizumab-Naïve Population
# [6] = Week 5, Omalizumab-Naïve Population
# [7] = Week 6, Omalizumab-Naïve Population
# [8] = Week 7, Omalizumab-Naïve Population
# [9] = Week 8, Omalizumab-Naïve Population
smiles,measurement,setting,value
"CC(C)(C=C(C#N)C(=O)N1CCC[C@@H](n2nc(-c3ccc(Oc4ccccc4)cc3F)c3c(N)ncnc32)C1)N1CCN(C2COC2)CC1 [rilzabrutinib, (R)-2-[3-[4-amino-3-(2-fluoro-4-phenoxy-phenyl)pyrazolo[3,4-d]pyrimidin-1-yl]piperidine-1-carbonyl]-4-methyl-4-[4-(oxetan-3-yl)piperazin-1-yl]pent-2-enenitrile]","HSS7, Max",[1],21.0
same,"HSS7, Min",[1],0.0
same,"HSS7 Change from baseline, Max",[1],0.0
same,"HSS7 Change from baseline, Mean (SD)",[1],−7.80 (6.87)
same,"HSS7 Change from baseline, Median",[1],−5.00
same,"HSS7 Change from baseline, Min",[1],−16.0
same,"HSS7 Change from baseline, Q1",[1],−14.00
same,"HSS7 Change from baseline, Q3",[1],−4.00
same,"HSS7 Percent change from baseline, Max",[1],0.0%
same,"HSS7 Percent change from baseline, Mean (SD)",[1],−53.67 (44.85) percent
same,"HSS7 Percent change from baseline, Median",[1],−41.67%
same,"HSS7 Percent change from baseline, Min",[1],−100.0%
same,"HSS7 Percent change from baseline, Q1",[1],−100.00%
same,"HSS7 Percent change from baseline, Q3",[1],−26.67%
same,HSS7 % Change difference for rilzabrutinib vs.placebo LS Mean (95% CI),"Week 1, ITT Population",−25.04 %
same,HSS7 % Change from baseline LS Mean (SE),"Week 1, ITT Population",−33.74 (5.55) %
same,HSS7 Change difference for rilzabrutinib vs.placebo LS Mean (95% CI),"Week 1, ITT Population","−2.95 (−5.36, −0.55)"
same,HSS7 Change from baseline LS Mean (SE),"Week 1, ITT Population",−4.79 (0.75)
same,HSS7 Postbaseline Mean (SD),"Week 1, ITT Population",9.32 (5.77)
same,HSS7 % Change difference for rilzabrutinib vs.placebo LS Mean (95% CI),[2],−27.07 %
same,HSS7 % Change from baseline LS Mean (SE),[2],−34.51 (5.97) %
same,HSS7 Change difference for rilzabrutinib vs.placebo LS Mean (95% CI),[2],"−3.10 (−5.66, −0.53)"
same,HSS7 Change from baseline LS Mean (SE),[2],−4.73 (0.80)
same,HSS7 Postbaseline Mean (SD),[2],9.26 (5.76)
same,HSS7 Postbaseline Mean (SD),"Week 1, Omalizumab-Naïve Population with Outlier Removed from Analysis",9.26 (5.76)
same,HSS7 % Change difference for rilzabrutinib vs.placebo LS Mean (95% CI),"Week 2, ITT Population",−18.39 %
same,HSS7 % Change from baseline LS Mean (SE),"Week 2, ITT Population",−34.94 (5.70) %
same,HSS7 Change difference for rilzabrutinib vs.placebo LS Mean (95% CI),"Week 2, ITT Population","−2.23 (−4.31, −0.14)"
same,HSS7 Change from baseline LS Mean (SE),"Week 2, ITT Population",−5.15 (0.79)
same,HSS7 Postbaseline Mean (SD),"Week 2, ITT Population",9.11 (5.66)
same,HSS7 % Change difference for rilzabrutinib vs.placebo LS Mean (95% CI),[3],−19.53 %
same,HSS7 % Change from baseline LS Mean (SE),[3],−34.80 (6.07) %
same,HSS7 Postbaseline Mean (SD),[3],9.27 (5.49)
same,HSS7 Postbaseline Mean (SD),"Week 2, Omalizumab-Naïve Population with Outlier Removed from Analysis",9.27 (5.49)
same,HSS7 % Change difference for rilzabrutinib vs.placebo LS Mean (95% CI),"Week 3, ITT Population",−19.09 %
same,HSS7 % Change from baseline LS Mean (SE),"Week 3, ITT Population",−38.24 (5.88) %
same,HSS7 Change difference for rilzabrutinib vs.placebo LS Mean (95% CI),"Week 3, ITT Population","−2.14 (−4.31, 0.04)"
same,HSS7 Change from baseline LS Mean (SE),"Week 3, ITT Population",−5.64 (0.82)
same,HSS7 Postbaseline Mean (SD),"Week 3, ITT Population",8.42 (6.15)
same,HSS7 % Change difference for rilzabrutinib vs.placebo LS Mean (95% CI),[4],−20.68 %
same,HSS7 % Change from baseline LS Mean (SE),[4],−38.38 (6.33) %
same,HSS7 Postbaseline Mean (SD),[4],8.55 (6.09)
same,HSS7 Postbaseline Mean (SD),"Week 3, Omalizumab-Naïve Population with Outlier Removed from Analysis",8.55 (6.09)
same,HSS7 % Change difference for rilzabrutinib vs.placebo LS Mean (95% CI),"Week 4, ITT population",−24.40 %
same,HSS7 % Change from baseline LS Mean (SE),"Week 4, ITT population",−43.10 (6.02) %
same,HSS7 Change difference for rilzabrutinib vs.placebo LS Mean (95% CI),"Week 4, ITT population","−2.71 (−4.92, −0.50)"
same,HSS7 Change from baseline LS Mean (SE),"Week 4, ITT population",−6.16 (0.83)
same,HSS7 Postbaseline Mean (SD),"Week 4, ITT population",7.50 (6.18)
same,HSS7 % Change difference for rilzabrutinib vs.placebo LS Mean (95% CI),[5],−27.23 %
same,HSS7 % Change from baseline LS Mean (SE),[5],−43.11 (6.45) %
same,HSS7 Postbaseline Mean (SD),[5],7.60 (6.00)
same,HSS7 Postbaseline Mean (SD),"Week 4, Omalizumab-Naïve Population with Outlier Removed from Analysis",7.60 (6.00)
same,HSS7 % Change difference for rilzabrutinib vs.placebo LS Mean (95% CI),"Week 5, ITT Population",−12.25 %
same,HSS7 % Change from baseline LS Mean (SE),"Week 5, ITT Population",−41.40 (5.88) %
same,HSS7 Change difference for rilzabrutinib vs.placebo LS Mean (95% CI),"Week 5, ITT Population","−1.29 (−3.57, 0.99)"
same,HSS7 Change from baseline LS Mean (SE),"Week 5, ITT Population",−5.93 (0.86)
same,HSS7 Postbaseline Mean (SD),"Week 5, ITT Population",7.91 (6.94)
same,HSS7 % Change difference for rilzabrutinib vs.placebo LS Mean (95% CI),[6],"−9.42 (−26.13, 7.29) %"
same,HSS7 % Change from baseline LS Mean (SE),[6],−39.98 (6.23) %
same,HSS7 Postbaseline Mean (SD),[6],8.34 (6.75)
same,HSS7 Postbaseline Mean (SD),"Week 5, Omalizumab-Naïve Population with Outlier Removed from Analysis",8.34 (6.75)
same,HSS7 % Change difference for rilzabrutinib vs.placebo LS Mean (95% CI),"Week 6, ITT Population",−15.72 %
same,HSS7 % Change from baseline LS Mean (SE),"Week 6, ITT Population",−39.79 (6.64) %
same,HSS7 Change difference for rilzabrutinib vs.placebo LS Mean (95% CI),"Week 6, ITT Population","−1.64 (−4.07, 0.79)"
same,HSS7 Change from baseline LS Mean (SE),"Week 6, ITT Population",−5.90 (0.92)
same,HSS7 Postbaseline Mean (SD),"Week 6, ITT Population",7.89 (6.65)
same,HSS7 % Change difference for rilzabrutinib vs.placebo LS Mean (95% CI),[7],−15.99 %
same,HSS7 % Change from baseline LS Mean (SE),[7],−40.02 (7.13) %
same,HSS7 Postbaseline Mean (SD),[7],8.17 (6.62)
same,HSS7 Postbaseline Mean (SD),"Week 6, Omalizumab-Naïve Population with Outlier Removed from Analysis",8.17 (6.62)
same,HSS7 % Change difference for rilzabrutinib vs.placebo LS Mean (95% CI),"Week 7, ITT Population",−22.31 %
same,HSS7 % Change from baseline LS Mean (SE),"Week 7, ITT Population",−46.27 (6.01) %
same,HSS7 Change difference for rilzabrutinib vs.placebo LS Mean (95% CI),"Week 7, ITT Population","−2.71 (−4.98, −0.44)"
same,HSS7 Change from baseline LS Mean (SE),"Week 7, ITT Population",−6.79 (0.86)
same,HSS7 Postbaseline Mean (SD),"Week 7, ITT Population",7.01 (6.25)
same,HSS7 % Change difference for rilzabrutinib vs.placebo LS Mean (95% CI),[8],−19.88 %
same,HSS7 % Change from baseline LS Mean (SE),[8],−45.57 (6.48) %
same,HSS7 Postbaseline Mean (SD),[8],7.34 (6.12)
same,HSS7 Postbaseline Mean (SD),"Week 7, Omalizumab-Naïve Population with Outlier Removed from Analysis",7.34 (6.12)
same,HSS7 % Change difference for rilzabrutinib vs.placebo LS Mean (95% CI),"Week 8, ITT population",−23.44 %
same,HSS7 % Change from baseline LS Mean (SE),"Week 8, ITT population",−52.52 (6.33) %
same,HSS7 Change difference for rilzabrutinib vs.placebo LS Mean (95% CI),"Week 8, ITT population","−2.74 (−5.15, −0.33)"
same,HSS7 Change from baseline LS Mean (SE),"Week 8, ITT population",−7.49 (0.91)
same,HSS7 Postbaseline Mean (SD),"Week 8, ITT population",6.41 (6.73)
same,HSS7 % Change difference for rilzabrutinib vs.placebo LS Mean (95% CI),[9],−25.21 %
same,HSS7 % Change from baseline LS Mean (SE),[9],−53.21 (6.86) %
same,HSS7 Postbaseline Mean (SD),[9],6.66 (6.70)
same,HSS7 Postbaseline Mean (SD),"Week 8, Omalizumab-Naïve Population with Outlier Removed from Analysis",6.66 (6.70)
same,HSS7 % Change difference for rilzabrutinib vs.placebo LS Mean (95% CI),"Week 9, ITT Population",−27.61 %
same,HSS7 % Change from baseline LS Mean (SE),"Week 9, ITT Population",−51.53 (6.66) %
same,HSS7 Change difference for rilzabrutinib vs.placebo LS Mean (95% CI),"Week 9, ITT Population","−3.04 (−5.57, −0.51)"
same,HSS7 Change from baseline LS Mean (SE),"Week 9, ITT Population",−7.16 (0.96)
same,HSS7 Postbaseline Mean (SD),"Week 9, ITT Population",6.69 (7.49)
same,HSS7 Postbaseline Mean (SD),"Week 9, Omalizumab-Naïve Population",7.01 (7.58)
same,HSS7 Postbaseline Mean (SD),"Week 9, Omalizumab-Naïve Population with Outlier Removed from Analysis",7.01 (7.58)
same,HSS7 % Change difference for rilzabrutinib vs.placebo LS Mean (95% CI),"Week 10, ITT Population",−24.54 %
same,HSS7 % Change from baseline LS Mean (SE),"Week 10, ITT Population",−52.53 (6.82) %
same,HSS7 Change difference for rilzabrutinib vs.placebo LS Mean (95% CI),"Week 10, ITT Population","−2.72 (−5.32, −0.11)"
same,HSS7 Change from baseline LS Mean (SE),"Week 10, ITT Population",−7.32 (0.99)
same,HSS7 Postbaseline Mean (SD),"Week 10, ITT Population",6.77 (7.18)
same,HSS7 Postbaseline Mean (SD),"Week 10, Omalizumab-Naïve Population",7.05 (7.27)
same,HSS7 Postbaseline Mean (SD),"Week 10, Omalizumab-Naïve Population with Outlier Removed from Analysis",7.05 (7.27)
same,HSS7 % Change difference for rilzabrutinib vs.placebo LS Mean (95% CI),"Week 11, ITT Population",−22.60 %
